Reference: ChEMBL document CHEMBL1155719, “Synthesis of phakellistatin 11: a micronesia (Chuuk) marine sponge cyclooctapeptide” (2001)
Values after ≈ are worked out from the molar mass of the structure shown. Residues, ends and D or L forms follow the SMILES beside them.

Columns and labels:
P388 [1] = experiment: Cytotoxicity against mouse P388 cells; assay type: functional; conditions: read-out: ED50 (the source's name)
P388 [2] = experiment: Cytotoxicity against mouse P388 cells by NMR biological activity study; assay type: functional; conditions: read-out: ED50 (the source's name)

| Compound | EC50 (P388 [1]) [µg/mL] | EC50 (P388 [2]) [µg/mL] |
| --- | --- | --- |
| CC[C@H](C)[C@@H]1NC(=O)[C@@H]2CCCN2C(=O)[C@H](Cc2ccccc2)NC(=O)[C@@H]2CCCN2C(=O)[C@H](Cc2ccc(O)cc2)NC(=O)[C@@H]2CCCN2C(=O)[C@H]([C@@H](C)CC)NC1=O.Cl [PHAKELLISTATIN 2 (SYNTHETIC)] (cyclo(FPIIPYP)) | 24 |  |
| CC[C@H](C)[C@@H]1NC(=O)[C@@H]2CCCN2C(=O)[C@H](Cc2ccccc2)NC(=O)[C@@H]2CCCN2C(=O)[C@H](Cc2ccc(O)cc2)NC(=O)[C@@H]2CCCN2C(=O)[C@H]([C@@H](C)CC)NC1=O [PHAKELLISTATIN 2] (cyclo(FPIIPYP)) | 0.34 (≈ 0.411 µM) |  |
| CC[C@H](C)[C@@H]1NC(=O)[C@H](CC(C)C)NC(=O)[C@@H]2CCCN2C(=O)[C@H]([C@@H](C)CC)NC(=O)[C@@H]2CCCN2C(=O)[C@H](CO)NC(=O)[C@H](Cc2ccccc2)NC1=O [STYLOPEPTIDE] (cyclo(FSPIPLI)) | 0.1 (≈ 0.13 µM) | 6 (≈ 7.81 µM) |
| CC[C@H](C)[C@@H]1NC(=O)[C@H](C)NC(=O)[C@H](CC(C)C)NC(=O)[C@H](CO)NC(=O)[C@H](CC(N)=O)NC(=O)[C@H](Cc2ccccc2)NC(=O)[C@@H]2CCCN2C1=O [STYLOSTATIN 1] (cyclo(AIPFNSL)) | 10 (≈ 13.5 µM) |  |
